Measured values taken from US20230172205A1 (priority 2020, published 2023).

Experiments:
[1] = system: Phakopsora pachyrhizi, strain with amino acid substitution F129L in the mitochondrial cytochrome b protein; experiment: Protective control of soybean rust on soybeans (PHAKPA P6); assay type: in vivo; conditions: for % PHAKPA (F129L) Disease level, P6 at 4 ppm / % PHAKPA (F129L) Disease level, P6 at 16 ppm: Table 1, protective P6, F129L strain
[2] = system: Phakopsora pachyrhizi, strain with amino acid substitution F129L in the mitochondrial cytochrome b protein; experiment: Protective control of soybean rust on soybeans (PHAKPA P2); assay type: in vivo; conditions: for % PHAKPA (F129L) Disease level, P2 at 4 ppm / % PHAKPA (F129L) Disease level, P2 at 16 ppm: Table 1, protective P2, F129L strain
[3] = system: Pyricularia oryzae; experiment: microbe, parasite or virus in culture; assay type: cell-based; conditions: Table C8a; 0.016 ppm

**Q.** With `CO/N=C(/C(=O)OC)c1cccc(C)c1CO/N=C(\C)c1ccc(-c2ccccc2)cc1C(F)(F)F` [compound 414] as the molecule, how does the “% PHAKPA (F129L) Disease level, P6 at 4 ppm” value (shortened to “% PHAKPA … P6 at 4 ppm”) [1] read?
**A.** 53%

**Q.** What about the “% PHAKPA (F129L) Disease level, P6 at 16 ppm” value (“% PHAKPA … P6 at 16 ppm” below) ([1]; 16 ppm) of the same molecule?
**A.** 15%

**Q.** And the “% PHAKPA (F129L) Disease level, P2 at 4 ppm” value (shortened to “% PHAKPA … P2 at 4 ppm”) [2]?
**A.** 53%

**Q.** What about the “% PHAKPA (F129L) Disease level, P2 at 16 ppm” value (“% PHAKPA … P2 at 16 ppm” below) ([2]; 16 ppm) of the same molecule?
**A.** 9%

**Q.** How did the “% PHAKPA … P6 at 4 ppm” value [1] turn out when `CON=C(C)c1ccc(C(C)=NOCc2c(C)cccc2C(=NOC)C(=O)OC)c(OC(F)(F)F)c1` [compound 418] was run?
**A.** 73%

**Q.** And the “% PHAKPA … P6 at 16 ppm” value ([1]; 16 ppm)?
**A.** 57%

**Q.** And the “% PHAKPA … P2 at 4 ppm” value [2]?
**A.** 70%

**Q.** What about the “% PHAKPA … P2 at 16 ppm” value ([2]; 16 ppm) of the same molecule?
**A.** 33%

**Q.** `CO/N=C(/C(=O)OC)c1cccc(C)c1CO/N=C(\C)c1ccc(-c2ccc(F)cc2)cc1C(F)(F)F` [compound 425] was tested. Which “% PHAKPA … P6 at 4 ppm” value [1] did it give?
**A.** 53%

**Q.** And the “% PHAKPA … P6 at 16 ppm” value ([1]; 16 ppm)?
**A.** 40%

**Q.** And the “% PHAKPA … P2 at 4 ppm” value [2]?
**A.** 27%

**Q.** And the “% PHAKPA … P2 at 16 ppm” value ([2]; 16 ppm)?
**A.** 28%

**Q.** Which “% PHAKPA … P6 at 4 ppm” value [1] does the source give for `CNC(=O)/C(=N/OC)c1cccc(C)c1CO/N=C(\C)c1ccc(-c2ccc(F)cc2)cc1C(F)(F)F` [compound 426] here?
**A.** 27%

**Q.** And the “% PHAKPA … P6 at 16 ppm” value ([1]; 16 ppm)?
**A.** 10%

**Q.** What about the “% PHAKPA … P2 at 4 ppm” value [2] of the same molecule?
**A.** 7%

**Q.** What about the “% PHAKPA … P2 at 16 ppm” value ([2]; 16 ppm) of the same molecule?
**A.** 1%

**Q.** How did the “% PHAKPA … P6 at 4 ppm” value [1] turn out when `CNC(=O)/C(=N/OC)c1cccc(C)c1CO/N=C(\C)c1ccc(Cl)c(F)c1OC(F)(F)F` [compound 449] was run?
**A.** 57%

**Q.** And the “% PHAKPA … P6 at 16 ppm” value ([1]; 16 ppm)?
**A.** 9%

**Q.** And the “% PHAKPA … P2 at 4 ppm” value [2]?
**A.** 33%

**Q.** What about the “% PHAKPA … P2 at 16 ppm” value ([2]; 16 ppm) of the same molecule?
**A.** 10%

**Q.** `COC=C(C(=O)OC)c1cccc(C)c1CON=C(C)c1ccc(F)c(F)c1OC(F)(F)F` [compound 450] was tested. Which “% PHAKPA … P6 at 4 ppm” value [1] did it give?
**A.** 4%

**Q.** And the “% PHAKPA … P6 at 16 ppm” value ([1]; 16 ppm)?
**A.** 1%

**Q.** And the “% PHAKPA … P2 at 4 ppm” value [2]?
**A.** 3%

**Q.** What about the “% PHAKPA … P2 at 16 ppm” value ([2]; 16 ppm) of the same molecule?
**A.** 1%

**Q.** Which results are given for `CO/C=C(/C(=O)OC)c1cccc(C)c1CO/N=C(\C)c1ccc(Cl)c(F)c1OC(F)(F)F` [compound 452]?
**A.** % PHAKPA (F129L) Disease level, P6 at 4 ppm [1]: 70%; % PHAKPA (F129L) Disease level, P6 at 16 ppm ([1]; 16 ppm): 14%; % PHAKPA (F129L) Disease level, P2 at 4 ppm [2]: 60%; % PHAKPA (F129L) Disease level, P2 at 16 ppm ([2]; 16 ppm): 6%

**Q.** With `CNC(=O)/C(=N/OC)c1cccc(OC)c1CO/N=C(\C)c1cccc(C(F)(F)F)c1` [compound 461] as the molecule, how does the “% PHAKPA … P6 at 4 ppm” value [1] read?
**A.** 52%

**Q.** And the “% PHAKPA … P6 at 16 ppm” value ([1]; 16 ppm)?
**A.** 6%

**Q.** What about the “% PHAKPA … P2 at 4 ppm” value [2] of the same molecule?
**A.** 26%

**Q.** And the “% PHAKPA … P2 at 16 ppm” value ([2]; 16 ppm)?
**A.** 2%

**Q.** Which results are given for `CO/C=C(/C(=O)OC)c1cccc(C)c1CO/N=C(\C)c1ccccc1OC(F)(F)F` [compound 462]?
**A.** % PHAKPA (F129L) Disease level, P6 at 4 ppm [1]: 55%; % PHAKPA (F129L) Disease level, P6 at 16 ppm ([1]; 16 ppm): 10%; % PHAKPA (F129L) Disease level, P2 at 4 ppm [2]: 37%; % PHAKPA (F129L) Disease level, P2 at 16 ppm ([2]; 16 ppm): 6%

**Q.** What does the source list for `CO/C=C(/C(=O)OC)c1cccc(C)c1CO/N=C(\C)c1ccc(OC(F)(F)F)cc1Cl` [compound 463]?
**A.** % PHAKPA (F129L) Disease level, P6 at 4 ppm [1]: 3%; % PHAKPA (F129L) Disease level, P6 at 16 ppm ([1]; 16 ppm): 0%; % PHAKPA (F129L) Disease level, P2 at 4 ppm [2]: 6%; % PHAKPA (F129L) Disease level, P2 at 16 ppm ([2]; 16 ppm): 0%

**Q.** For `CO/C=C(/C(=O)OC)c1cccc(C)c1CO/N=C(\C)c1ccc(OC)cc1C(F)(F)F` [compound 464], which “% PHAKPA … P6 at 4 ppm” value [1] is on record?
**A.** 8%

**Q.** What about the “% PHAKPA … P6 at 16 ppm” value ([1]; 16 ppm) of the same molecule?
**A.** 0%

**Q.** And the “% PHAKPA … P2 at 4 ppm” value [2]?
**A.** 1%

**Q.** What about the “% PHAKPA … P2 at 16 ppm” value ([2]; 16 ppm) of the same molecule?
**A.** 0%

**Q.** Which “Fungal growth (%) PYRIOR” value [3] does the source give for `CO/N=C(/C(=O)OC)c1cccc(C)c1CO/N=C(\C)c1cccc(OC(F)(F)F)c1` [drawing 939, reference compound] here?
**A.** 100%

**Q.** Which results are given for `CNC(=O)/C(=N/OC)c1ccccc1CO/N=C(\C)c1cc(F)ccc1F` [reference compound]?
**A.** PHAKPA (F129L) Disease level (%), P6 at 16 ppm ([1]; Table C4, 16 ppm, untreated >85): 22%; PHAKPA (F129L) Disease level (%), P2 at 16 ppm ([2]; Table C4, 16 ppm, untreated >90): 1%
